pIC50: −log10 of the molar value. Activity calls are given as the source filed them. No rule for the calls is given here.
System: CHOP reporter cell assay, percent of control
Experiment: CHOP reporter inhibitor potency, dose response, cell-based (AID 504322);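 also: CHO cells carrying a CHOP reporter stimulated with tunicamycin to induce ER stress; potency is for inhibition of the stress-induced reporter signal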

SMILES | IC50 | pIC50
Cc1cc(Cl)ccc1OCC(=O)N[C@@H](Cc1ccccc1)c1nc2ccccc2[nH]1 | 9.23 µM (inactive) | 
CC(C)=C1C2CCC1C(C(=O)Nc1sc(C)c(-c3ccc(C(C)C)cc3)c1C(N)=O)C2C(=O)O (stereo not given) |  | 5.32
CC(C)=CCc1c(O)cc2oc3c(CC=C(C)C)c(O)c(O)c(CC=C(C)C)c3c(=O)c2c1O | 9.67 µM (inactive) | 
Cc1ccc(Nc2nc(N)c([N+](=O)[O-])c(N3CCC(C)CC3)n2)cc1C | 5.69 µM (inactive) | 
O=C(Nc1ccc(C(F)(F)F)cc1)c1cc(-c2cccnc2)nc2ccc(Br)cc12 |  | 5.44
O=C(Nc1ccc(-c2nc3ccccc3s2)cc1)C1=COCCO1 | 7.48 µM (inactive) | 
CN(C)c1ccc(-c2nc3ccccn3c2/N=C/c2ccc(Br)cc2)cc1 |  | 5.15
O=C(OCn1ncc(Br)c(Br)c1=O)c1c(F)cccc1F |  | 6.12
Cc1cc(/C=N/n2cnnc2)c(C)n1-c1ccc(OCc2ccc(Cl)cc2)cc1 |  | 6.42
O=[N+]([O-])c1ccc(/C=N/n2c(C3CCCCC3)n[nH]c2=S)cc1 | 9.52 µM (inactive) | 
O=c1[nH]c(NNC(=S)NC2CCCCC2)nc2c1C1(CCCC1)Cc1ccccc1-2 | 4.1 µM (inactive) | 
CCOc1cc(/C=N/NC(=O)Cc2ccc(C(F)(F)F)cc2[N+](=O)[O-])c(Br)cc1OC |  | 5.34
Nc1ccc(SC(F)(F)F)cc1C(=O)c1ccccc1 |  | 5.30
CCOC(=O)c1c(C)[nH]c(C(=O)COC(=O)c2[nH]c(C)c(C(C)=O)c2C)c1C | > 10 µM (inactive) | 
O=C(Oc1ccc(O)cc1)C12CC3CC(CC(C3)C1)C2 | > 10 µM (inactive) | 
COc1ccc(C(=O)/C=C/C(=O)N(CC(=O)NC2CCCCC2)Cc2ccc(F)cc2)c(O)c1 |  | 5.67
Cc1ccc(C(=O)CC(=O)c2cc(Cl)ccc2O)cc1 | 5.51 µM (inactive) | 
O=C(NCc1nc(-c2ccc(C(F)(F)F)cc2)no1)Nc1ccc(OC(F)(F)F)cc1 |  | 5.69
CCc1ccc2[nH]c(=O)c(C(c3nnnn3Cc3ccco3)N3CCC(C)CC3)cc2c1 (stereo not given) |  | 5.30
Cc1cccc(/C=C2/S/C(=N/N=C3\CC4CCC3(C)C4(C)C)NC2=O)c1 (stereo not given) | 4.97 µM (inactive) | 
O=C1C=CC(=O)N1CCCCCCN1C(=O)C=CC1=O |  | 5.31
COC(=O)[C@]12OC[C@]34C([C@@H](O)[C@@H]1O)[C@]1(C)CC(=O)C(O)=C(C)[C@@H]1C[C@H]3OC(=O)[C@H](O)[C@@H]24 (stereo not given in full) |  | > 6.80
O=S(=O)(C/C(=C/CO)S(=O)(=O)c1ccccc1)c1ccccc1 | > 10 µM (inactive) | 
Cc1ccc2nc(NC(=O)CSCC(=O)OCC(=O)c3ccc(Br)cc3)sc2c1 | 5.35 µM (inactive) | 

SMILES | IC50 | pIC50
O=[N+]([O-])c1c(NCCCO)cc(Sc2ccc(Cl)cc2)c2nonc12 |  | 5.33
Cc1ccc(/C=N/NC(=O)CCCOc2ccc(Cl)cc2Cl)cc1 | 7.92 µM (inactive) | 
O=C(NCc1ccccc1)c1cc(-c2ccncc2)nc2ccc(S(=O)(=O)N3CCOCC3)cc12 | 9.8 µM (inactive) | 
Cc1cccc(/C=C/C(=O)c2cc(Br)ccc(=O)c2O)c1 | 8.57 µM (inactive) | 
O=C(NC(c1ccccc1)c1c(O)ccc2ccccc12)c1ccccc1Cl (stereo not given) | > 10 µM (inactive) | 
Cc1cc(Cl)n2c(nc3cc(F)c(F)cc32)c1C#N | > 10 µM (inactive) | 
CCc1ccc(OCC(=O)NC(NC(=S)Nc2ccc(Cl)cc2)C(Cl)(Cl)Cl)cc1 (stereo not given) | 5.13 µM (inactive) | 
O=C(CNC1CCCCCC1)Nc1ccccc1N1CCCCC1 | 7.73 µM (inactive) | 
C=CCn1c(O)c(C(CC)=Nc2ccc(N(CC)CC)cc2)c(=O)[nH]c1=O |  | 5.59
O=C(Nc1ccccc1Cl)c1ccccc1Oc1ccc(C(F)(F)F)cc1[N+](=O)[O-] | 6.53 µM (inactive) | 
O=C(N/N=C/c1ccc(F)cc1)c1c(O)c2ccccc2[nH]c1=O | > 10 µM (inactive) | 
COc1ccc2nc(Nc3nc(CSc4nc5ccccc5[nH]4)cc(=O)[nH]3)nc(C)c2c1 | 2.33 µM (inactive) | 
CC1(c2ccccc2)CC(C)(C)n2c(O)c(C3=NC(=S)NC3=O)c3cccc1c32 (stereo not given) | 9.76 µM (inactive) | 
Cc1ccc(-c2nc(C(Cl)Cl)c3ccccc3n2)cc1 |  | 5.68
CCOC(=O)c1c(N)sc(C(O)(C(F)(F)F)C(F)(F)F)c1-c1ccc(Cl)cc1 | 9.37 µM (inactive) | 
O=C1NC[C@@H](Cc2cccc3ccccc23)N(CCc2cc(C(F)(F)F)cc(C(F)(F)F)c2)C1=O | 9.02 µM (inactive) | 
COc1ccc(N2C(=O)CC(Sc3nnnn3-c3ccc(F)cc3)C2=O)cc1 (stereo not given) |  | 6.62
CCCCc1nc(NCCN)c(C#N)c2c1CSC(C)(C)C2 | 5.15 µM (inactive) | 
OC(CNCC1CCCO1)Cn1c2ccc(Br)cc2c2cc(Br)ccc21 (stereo not given) | 8.2 µM (inactive) | 
CCCCN=c1scc(-c2ccc3c(c2)NC(=O)CO3)n1N=C1CCCC1 | 8 µM (inactive) | 
N#C/C(=C\c1ccc([N+](=O)[O-])o1)C(=O)Nc1ccc(F)cc1 | > 10 µM (inactive) | 
O=c1c(Cl)nc2cc(Cl)ccc2n1CCNc1ncc(C(F)(F)F)cc1Cl |  | 5.60
Cc1cccnc1NC(=O)c1c(O)c2ccccc2n(C)c1=O | > 10 µM (inactive) | 
Cc1nnc(NC(=O)c2sc3nc(-c4cccs4)cc(C(F)(F)F)c3c2N)s1 | 5.97 µM (inactive) | 

SMILES | IC50 | pIC50
CCOc1cc(S(=O)(=O)Nc2ccc(CC)cc2)ccc1Cl | 4.48 µM (inactive) | 
COC(=O)c1ccc2c(=O)n(CCCCCC(=O)N3CCN(c4ccccc4)CC3)c(=O)[nH]c2c1 | 9.65 µM (inactive) | 
Cc1cc(C(=O)COC(=O)c2ccccc2O)c(C)n1Cc1cccs1 | < 0.16 µM (inactive) | 
CC(=O)Nc1ccc(NC2=Nc3ccccc3N3C2=Nc2c(c(C)nn2-c2ccccc2)C3c2ccccc2)cc1 (stereo not given) |  | 5.37
CCc1cc(-c2n[nH]c(C)c2Oc2ccc(C(C)C)cc2)c(O)cc1O | 7.24 µM (inactive) | 
Cc1nn(Cc2c(Cl)cccc2Cl)c(C)c1NC(=O)c1cc(C(C)C)on1 | > 10 µM (inactive) | 
O=C(Nc1ccc(Oc2ccccc2)cc1)C1CCN(c2c3c(nc4ncnn24)CCC3)CC1 | > 10 µM (inactive) | 
COCCCn1c(N)c(C(=O)NCCC(C)C)c2nc3ccccc3nc21 | 9.46 µM (inactive) | 
CC1(C)C[C@H]2C=C(C=O)[C@]3(C=O)C[C@]3(C)[C@H]2C1 |  | 6.07
COc1cc(OC)cc(-c2nc3ccccc3c(=O)n2OC(=O)c2ccc(Br)cc2)c1 | > 10 µM (inactive) | 
CCc1nc2c(cnn2-c2ccc(Cl)cc2)c(=O)n1-c1ccc(OC)cc1 | 8.14 µM (inactive) | 
CCCCCCn1c(=O)c(C(=O)N/N=C/c2cccc(F)c2)c(O)c2ccccc21 | 7.03 µM (inactive) | 
CC(C)(C)c1ccc(C(=O)NNC(=O)c2cccc(Br)c2)cc1 | > 10 µM (inactive) | 
CCCNC(=O)c1nnsc1S(=O)(=O)c1ccc(Cl)cc1 | 2.02 µM (inactive) | 
CCN1/C(=C/c2ccc3cc(C)ccc3[n+]2C)Sc2ccc3sccc3c21 | 5.29 µM (inactive) | 
CC(C)CCSc1nc2c(c(=O)[nH]c(=O)n2C)n1CCCc1ccccc1 |  | 5.28
CCC1(c2ccc(F)cc2)NC(=O)N(CC(=O)Nc2ccc(-c3nc4ccc(C)cc4s3)cc2)C1=O (stereo not given) |  | 5.81
CCCCCCSc1nsc(NC(=O)CCC)n1 | 9.9 µM (inactive) | 
CC(C)(C)c1ccc(-c2noc(CCC(N)=O)n2)cc1 |  | > 6.80
C=CCn1c(COc2ccccc2)nnc1SC(C)C(=O)N/N=C/c1cc(Cl)ccc1O (stereo not given) | 9.66 µM (inactive) | 
NC(=S)n1[nH]c(-c2ccc([N+](=O)[O-])cc2)c(N=Nc2cccc([N+](=O)[O-])c2)c1=O | 4.4 µM (inactive) | 
CCCCCCn1c(-c2ccco2)nc2oc3cc(OC)ccc3c(=O)c2c1=O | 9.42 µM (inactive) | 
COc1cc(C(=O)OC(C)C(=O)NCC2CCCCC2)cc(NC(=O)c2ccco2)c1OC (stereo not given) | > 10 µM (inactive) | 
CC(C)(C)C(=O)NC(=S)NNC(=O)C(c1ccccc1)c1ccccc1 | 9.04 µM (inactive) | 

SMILES | IC50 | pIC50
COc1ccc(-c2cc(C3CCN(Cc4cccc(C(F)(F)F)c4)CC3)[nH]n2)cc1 | 4.11 µM (inactive) | 
Cc1cc(C2=NNC(=NC3CC3)SC2)c(C)n1-c1ccccc1 | < 0.16 µM (inactive) | 
O=C1C(Nc2ccc(O)cc2)=C/C(=N/S(=O)(=O)c2cccs2)c2ccccc21 |  | 5.92
Cn1c(=O)cc(SCC(=O)NCCC2=CCCCC2)c2ccc(Cl)cc21 | 5.34 µM (inactive) | 
Cc1ccc(C(C(=O)NCc2ccco2)N(C(=O)CNC(=O)c2cccs2)c2c(C)cccc2C)cc1 (stereo not given) | > 10 µM (inactive) | 
COc1ccccc1C(=O)Oc1ccc(C(C)C)cc1 | > 10 µM (inactive) | 
CC1=NNC(=O)/C1=C\c1cn(-c2ccccc2)nc1-c1ccc(F)cc1 | 9.5 µM (inactive) | 
CCOc1cc(S(=O)(=O)Nc2cc(C)cc(C)c2)ccc1Cl | 9.51 µM (inactive) | 
CC1CN(S(=O)(=O)c2ccc(C(=O)Nc3nc(-c4cc5ccccc5o4)cs3)cc2)CC(C)O1 (stereo not given) | 9.56 µM (inactive) | 
CSC(SC)=C(C#N)C(=O)c1ccccc1 | > 10 µM (inactive) | 
COc1ccc(OCc2cccc(C(=O)Nn3cc([N+](=O)[O-])cn3)c2)cc1 |  | 6.07
CCCCCn1c(=O)c(C(=O)Nc2nc3ccccc3[nH]2)c(O)c2ccccc21 |  | 5.30
COc1cc([C@@H]2c3cc4c(cc3[C@@H](O)[C@@H](CO)[C@@H]2CO)OCO4)cc(OC)c1O[Si](C)(C)C(C)(C)C | 6.02 µM (inactive) | 
O=C(CN1C(=O)c2ccccc2S1(=O)=O)c1ccc2c(c1)OCCCO2 | 0.34 µM (inactive) | 
O=C(O)c1cccc(COc2ccc(CO)cc2Cl)c1 |  | > 6.80
CN1C2CCC1/C(=C/c1ccccn1)C(=O)/C2=C\c1ccccn1 |  | 5.69
CN(CCCC[C@H](CNCc1ccc(-c2ccccc2)cc1)N1C[C@H](c2ccccc2)N(CCc2ccc(Cl)c(Cl)c2)C(=O)C1=O)Cc1ccc(-c2ccccc2)cc1 | 9.37 µM (inactive) | 
Cn1c(=O)c([N+](=O)[O-])c(Cl)c2ccccc21 |  | 5.48
O=C1/C(=C/c2ccncc2)SC(=S)N1C1CCS(=O)(=O)C1 (stereo not given) | 9.91 µM (inactive) | 
CCC(C)Sc1nc2c(c(=O)[nH]c(=O)n2C)n1Cc1ccc(Cl)cc1 (stereo not given) | > 10 µM (inactive) | 
CCc1ccc(-c2nc(CSCC(=O)NCc3ccco3)c(C)o2)cc1 |  | > 6.80
CC(NC(=O)/C(C#N)=C/c1ccc(Cl)c([N+](=O)[O-])c1)c1ccccc1 (stereo not given) | 9.98 µM (inactive) | 
CCCOC(=O)c1ccc(Oc2cn[nH]c2-c2ccc(OC)cc2O)cc1 | 9.32 µM (inactive) | 
